Data as given in US8999944B2, “Thioredoxin interacting protein (TXNIP) as regulator of vascular function” (University of Rochester, priority 2005, dated 2015).

System: VCAM1
Test: TNF-induced VCAM1 expression in HUVEC (immunoblotting)
Format: cell-based, human
Conditions: for TNF-induced VCAM1 expression: inhibitor at 30 μM
Protocol: FIG. […] VCAM-1 expression was determined by immunoblotting from 3 independent experiments. Equal protein loading was confirmed with actin antibody.
To knockdown TXNIP, HUVEC were treated with small interference RNA (siRNA) against human TXNIP coding region. The target sequences were: 5′-AAGCCGTTAGGATCCTGGCTT (SEQ ID NO: 1) for human TXNIP and 5′-AATTCTCCGAACGTGTCACGT-3′ (SEQ ID NO: 2) for control non-silencing siRNA, respectively (Qiagen-Xeragon). HUVEC at >90% confluence in 60-mm dishes were used for transfection. […] This mixture was added to HUVEC in normal culture media (2 ml) and cells were incubated for 1.5 h. The medium was changed and cells recovered for 24 h. The transfection was repeated and after 24 h, cells were used for experiments.
I.P. and I.B. experiments were performed as described previously (Surapisitchat et al., “Fluid Shear Stress Inhibits TNF-Alpha Activation of JNK but not ERK½ or p38 in Human Umbilical Vein Endothelial Cells: Inhibitory Crosstalk Among MAPK Family Members,” Proc Natl Acad Sci USA 98:6476-6481 (2001); Liu et al., “Laminar Flow Inhibits TNF-Induced ASK1 Activation by Preventing Dissociation of ASK1 From its Inhibitor 14-3-3,” J Clin Invest 107:917-923 (2001); Yamawaki et al., “Chronic Physiological Shear Stress Inhibits Tumor Necrosis Factor-Induced Proinflammatory Responses in Rabbit Aorta Perfused ex vivo,” Circulation 108:1619-1625 (2003), each of which is hereby incorporated by reference in its entirety). The resulting autoradiograms were analyzed with NIH Image 1.60. Experiments were performed at least three times and equal loading of protein was ensured by measuring actin expression.

Structure (SMILES) | effect on VCAM1 expression (inhibitor at 10 μM, n=4) | TNF-induced VCAM1 expression
Oc1c2ccccc2c2c3c(cccc13)N=N2 [SP600125] | no effect | –
COc1cccc(-c2cc(=O)c3ccccc3o2)c1N [PD98059] | – | not
C[S+]([O-])c1ccc(-c2nc(-c3ccncc3)c(-c3ccc(F)cc3)[nH]2)cc1 (stereo not drawn) [SB203580] | – | almost completely blocked
